Data reported in US10800778B2 (Entasis Therapeutics Limited, priority 2016, dated 2020).
Where a name gives a salt, the structure may show the parent alone.

Key:
[1] = tested on: C. freundii AmpC, TEM-1, CMY65; test: MIC, CLSI broth microdilution, beta-lactam with or without BLI; type: cell-based
Experimental: (§1) The minimal inhibitory concentration (MIC) values against each organism and drug combination were determined using the Clinical and Laboratory Standards Institute guidelines (CLSI) broth microdilution methodology (CLSI M07-A10). The recommended quality control (QC) bacterial strains E. coli ATCC 25922, E. coli ATCC 35218 and Klebsiella pneumoniae ATCC 700603 were incorporated into each test according to the CLSI guidelines to assure that there was no variation between test dates (CLSI M100-S25). The MICs of these QC strains were within QC range on all test occasions. Drug containing plates were made using the master plate method. A cefpodoxime solution was prepared to 20× concentration and 2-fold serial dilutions were made in cation adjusted Mueller-Hinton Broth. Equal volumes of 20× examplar compounds at a fixed concentration were added to the master plate. 10 uL was stamped into daughter plates using a Tecan EVO robot. Organism suspensions were adjusted to a 0.5 McFarland standard and further diluted to yield a final inoculum between 3×10^5 and 7×10^5 colony-forming units (CFU)/mL. Bacterial inocula were made in sterile, cation adjusted Mueller-Hinton Broth (Beckton Dickinson). An inoculum volume of 1.1× concentration of 90 uL was added to wells (using a Tecan EVO robot). All inoculated microdilution plates were incubated in ambient air at 35° C. for 18-24 hours.
(§2) Following the procedure from Example 103, MICs were determined for several beta-lactams in presence of a fixed concentration (4 μg/mL) of exemplar compounds (Table 3) against 3 Enterobacteriaceae strains.

E. coli WT (ATCC 25922) = test: as above; type: cell-based
Experimental: as §1, §2

[2] = tested on: Klebsiella pneumoniae SHV-18, OXA-2, OKP-6 (ATCC 700603); test: as above; type: cell-based
Experimental: as §1, §2

[3] = tested on: E. coli ARC2687 (AmpC, CTX-M-14); test: Cefpodoxime MIC against clinical isolate E. coli ARC2687; type: cell-based
[4] = tested on: E. coli AmpC, OXA-1, CTX-M-15, TEM-1; test: MIC, CLSI broth microdilution, cefpodoxime with or without BLI; type: cell-based; conditions: Escherichia coli, read-out: MIC of beta-lactam alone, heading: MIC of beta-lactam alone, no BLI
Experimental: as §1

[5] = Rat PK, intravenous and oral; type: in vivo, Sprague-Dawley rats; conditions: Sprague-Dawley, plasma; rat, IV 10 mg/kg; analyte = compound administered
Experimental: Intravenous rat pharmacokinetics of exemplar compounds were determined in jugular vein cannulated Sprague-Dawley rats (n=3) (Harlan Laboratories, Indianapolis, Ind.) at a dose of 10 mg/kg. Compounds were dissolved and administered intravenously in 0.9% saline, pH 6.5 at a dose volume of 2 mL/kg. […] Oral pharmacokinetic studies were conducted with exemplar compounds at 10 mg/kg equivalents of carboxylic acids. Doses were dissolved and administered orally in 25:75 PEG400: water for injection, pH 4.5 at a dose volume of 10 mL/kg. […] Plasma samples were stored at −80° C. prior to bioanalysis.
Plasma samples were thawed on ice prior to processing. Samples (30 μL) were diluted and proteins precipitated with 180 μL of acetonitrile containing 0.1% formic acid and 250 ng/mL of carbutamide (N1-(butylcarbanoyl)-sulfanilamide, Sigma-Aldrich Catalog # S385433) as an internal standard. Samples were vortexed for 30 seconds, centrifuged at 3400 g for 10 minutes and the supernatant transferred to injection vials.
LC/MS/MS analysis was completed on an AB Sciex QTrap 6500 mass spectrometer in positive ionization mode, coupled to a Schimadzu Nexera LC system. A Waters Atlantis T3 (3 μm, 3.0×50 mm) column was used for chromatographic separation. Injection volume was […] The mobile phase consisted 0.1% formic acid in water (A) and 0.1% formic acid in acetonitrile (B), with a gradient of 2-98% B:A over two minutes.
Plasma concentration vs. time profiles following intravenous (IV) administration and oral (PO) administration of exemplar compounds were analyzed by non-compartment analysis using WinNonLin 6.4.

[6] = target: OXA-48 (Class D beta-lactamase) (Klebsiella pneumoniae, UniProt Q6XEC0); test: Inhibition of beta-lactamase enzymes (nitrocefin hydrolysis), OXA-48; type: biochemical; conditions: read-out: Class D OXA-48 60 min IC50, nitrocefin 100 μM
Method in brief: (§3)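 Nitrocefin (100 μM) hydrolysis followed at 490 nm for 1 h in 0.1 M sodium phosphate pH 7.0, 10 mM NaHCO3, 0.005% Triton X-100, with 3-fold inhibitor dilutions from 100 μM to 62.7 pM. Progress curves fitted globally to give kinact/Ki or Ki; percent inhibition from best-fit absorbance fitted with Hill equation.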

[7] = target: TEM-1 (Class A beta-lactamase) (Escherichia coli, UniProt P62593); test: Inhibition of beta-lactamase enzymes (nitrocefin hydrolysis), TEM-1; type: biochemical; conditions: read-out: Class A TEM-1 60 min IC50, nitrocefin 100 μM
Method in brief: as §3

[8] = tested on: E. coli ARC2687 (AmpC, CTX-M-14); test: Mouse neutropenic thigh infection model, oral efficacy of cefpodoxime proxetil with Example 35; type: in vivo
[9] = BLI at fixed 4 μg/ml, K. pneumoniae ATCC 700603

Chain of TEM-1 (Class A beta-lactamase) (P62593 whole entry, looked up, species assumed): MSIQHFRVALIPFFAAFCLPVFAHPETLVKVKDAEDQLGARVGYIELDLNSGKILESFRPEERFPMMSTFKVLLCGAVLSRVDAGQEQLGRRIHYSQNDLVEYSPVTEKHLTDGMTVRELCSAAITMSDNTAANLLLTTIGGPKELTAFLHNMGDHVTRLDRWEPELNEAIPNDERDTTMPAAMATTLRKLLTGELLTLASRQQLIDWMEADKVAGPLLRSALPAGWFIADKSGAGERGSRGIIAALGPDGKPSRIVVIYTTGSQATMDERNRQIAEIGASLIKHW
Chain of OXA-48 (Class D beta-lactamase) (Q6XEC0 whole entry, looked up, species assumed): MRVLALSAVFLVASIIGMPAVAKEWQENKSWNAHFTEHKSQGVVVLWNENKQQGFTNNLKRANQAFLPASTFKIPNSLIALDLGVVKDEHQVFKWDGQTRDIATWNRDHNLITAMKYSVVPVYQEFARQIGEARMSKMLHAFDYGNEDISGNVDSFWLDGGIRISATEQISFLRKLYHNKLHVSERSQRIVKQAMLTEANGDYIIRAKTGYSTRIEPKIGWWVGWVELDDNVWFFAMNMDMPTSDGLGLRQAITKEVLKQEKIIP

## COCC1=C(C(=O)O)N2C(=O)[C@@H](NC(=O)/C(=N\OC)c3csc(N)n3)[C@H]2SC1 [Cefpodoxime, reference compound]
[1]; Citrobacter freundii, read-out: MIC of beta-lactam alone, no BLI, heading: MIC of beta-lactam alone
  MIC: > 64 µg/mL
[1]; no BLI
  MIC of beta-lactam alone: >64 µg/mL
E. coli WT (ATCC 25922); Escherichia coli, ATCC25922, no BLI, read-out: MIC of beta-lactam alone
  MIC: 1 µg/mL
[2]; Klebsiella pneumoniae, ATCC700603, no BLI, K. pneumoniae SHV-18, OXA-2, OKP-6 (ATCC 700603), read-out: MIC of beta-lactam alone
  MIC: 16 µg/mL
[3]; Escherichia coli, cefpodoxime alone
  MIC: > 512 µg/mL
[4]
  MIC: > 64 µg/mL

## CC1=C[C@@H](C(N)=O)N2C[C@@H]1N(O[C@H](F)C(=O)O)C2=O [Example 33, (2R)-2-(((2S,5R)-2-carbamoyl-4-methyl-7-oxo-1,6-diazabicyclo[3.2.1]oct-3-en-6-yl)oxy)-2-fluoroacetic acid lithium salt]
[1]; BLI at fixed 4 μg/ml
  MIC of cefixime in presence of BLI: ≤0.06 µg/mL
  MIC of cefuroxime in presence of BLI: <0.03125 µg/mL
  MIC of faropenem in presence of BLI: ≤0.06 µg/mL
  MIC of tebipenem in presence of BLI: ≤0.06 µg/mL
E. coli WT (ATCC 25922); BLI at fixed 4 μg/ml
  MIC of cefixime in presence of BLI: ≤0.06 µg/mL
  MIC of cefuroxime in presence of BLI: <0.03125 µg/mL
  MIC of faropenem in presence of BLI: ≤0.06 µg/mL
  MIC of tebipenem in presence of BLI: ≤0.06 µg/mL
[2]; [9]
  MIC of cefixime in presence of BLI: ≤0.06 µg/mL
  MIC of cefuroxime in presence of BLI: 4 µg/mL
  MIC of faropenem in presence of BLI: 0.5 µg/mL
  MIC of tebipenem in presence of BLI: 0.125 µg/mL
[3]; BLI at 4 μg/mL
  cefpodoxime MIC in combination with BLI: < 0.03 µg/mL
[5]
  AUC: 26.3 µM·h
[6]
  IC50: 77 nM
[7]
  IC50: 3.2 nM

## C[C@@H](O)[C@H]1C(=O)N2C(C(=O)O)=C(S[C@@H]3CN[C@H](C(=O)N(C)C)C3)[C@H](C)[C@H]12 [Meropenem]
[8]; 600 mg/kg q6h administered subcutaneously, positive control
  reduction in CFU relative to initiation of therapy: over 1 log10
[8]; Meropenem 600 mg/kg SC/q6h, positive control, mouse neutropenic thigh, E. coli ARC2687
  log10CFU/gm thigh: 5.17 log10CFU/gm thigh
[8]; Meropenem 600 mg/kg SC/q6h, relative to 26 hr growth control
  CFU Change from 26 hr: −5.69 log10 CFU/gm
[8]; Meropenem 600 mg/kg SC/q6h, relative to initiation of therapy
  CFU Change from 2 hr: −1.10 log10 CFU/gm
